Measured values published in patent publication US7943611B2, “Imidazo[1,2-A]pyridin-3-yl-acetic acid hydrazides, processes, for their preparation and pharmaceutical uses thereof” (Ferrer International, S.A., priority 2006, dated 2011).

Experiments:
[1] = target: T1, α1-subunit of the GABAA receptor (Rattus norvegicus, UniProt P62813); experiment: Ligand-binding assay, radiolabeled flumazenil competition, cerebellum membranes; details: 1 nM radiolabeled flumazenil; for inhibition at 10 µM: 10^−5 M test compound, read-out: % Inhib 10^−5M (affinity for the α1-subunit of the GABAA receptor); for inhibition at 0.1 µM: 10^−7 M test compound, read-out: % Inhib 10^−7M (affinity for the α1-subunit of the GABAA receptor)
T1 construct: the cerebellum (tissue that mostly contains α1-GABAA receptor); from tissue; host or cells: rat cerebellum membranes
Procedure: (§1) a) Ligand-Binding Assays. Determination of the Affinity of Test Compounds for α1- and α2-GABAA Receptor
(§2) Male Sprague-Dawley rats weighing 200-250 g at the time of experiment were used. After decapitation of the animal, the cerebellum (tissue that mostly contains α1-GABAA receptor) and spinal cord (tissue that mostly contains α2-GABAA receptor) were removed. The membranes were prepared according to the method by J. Lameh et al. (Prog. Neuro-Psychopharmacol. Biol. Psychiatry, 24, 979-991, 2000) and H. Noguchi et al. (Eur J Pharm, 434, 21-28, 2002) with slight modifications. Once the tissues weighed, they were suspended in 50 mM Tris.HCl (pH 7.4), 1:40 (v/v), or sucrose 0.32 M in the case of spinal cord, homogenized and then centrifuged at 20,000 g for 10 min at 7° C. The resulting pellet was resuspended under the same conditions and centrifuged again. The pellet was finally resuspended on a minimum volume and kept at −80° C. overnight. On the next day, the process was repeated until the final pellet was resuspended at a ratio of 1:10 (v/v) in the case of cerebellum and at a ratio of 1:5 (v/v) in the case of spinal cord.
(§3) Affinity was determined by competitive tests using radiolabeled flumazenil as ligand. The tests were performed according to the methods described by S. Arbilla et al. (Eur. J. Pharmacol., 130, 257-263, 1986); and Y. Wu et al. (Eur. J. Pharmacol., 278, 125-132, 1995) using 96-well microtiter plates. The membranes containing the study receptors, flumazenil (radiolabeling at a final concentration of 1 nM) and ascending concentrations of test compounds (in a total volume of 230 μl in 50 mM [pH 7.4] Tris.HCl buffer) were incubated. Simultaneously, the membranes were only incubated with the radiolabeled flumazenil (total binding, 100%) and in the presence of an elevated concentration of unradiolabeled flumazenil (non-specific binding, % estimation of radiolabeled ligand). The reactions started on adding the radiolabeled ligand followed by incubation for 60 minutes at 4° C. At the end of the incubation period, 200 μl of reaction were transferred to a multiscreen plate (Millipore) and filtered using a vacuum manifold and then washed three times with cold test buffer. The multiscreen plates were equipped with a GF/B filter that retained the membranes containing the receptors and the radiolabeled ligand which had been bound to the receptors. After washing, the plates were left till dry. Once dried, scintillation liquid was added and left under stirring overnight. The next day the plates were counted using a Perkin-Elmer Microbeta scintillation counter.
(§4) For analysis of the results the percentage of specific binding for every concentration of test compound was calculated as follows: % specific binding=(X−N/T−N)×100 where, • X: amount of bound ligand for every concentration of compound. • T: total binding, maximum amount bound to the radiolabeled ligand. • N: non-specific binding, amount of radiolabeled ligand bound in a non-specific way irrespective of the receptor used.
(§5) Every concentrations of compound were tested in triplicate and their mean values were used to determine the experimental values of % specific binding versus the concentration of compound. Affinity data are expressed as % inhibition at 10^−5 M and 10^−7 M concentrations.

[2] = test system: spontaneous motor activity in mice; experiment: In vivo predictive sedation-hypnosis test (spontaneous motor activity, traveled distance); design: species or system mouse; details: for % Motor activity inhibition: male CD1 mice, single equimolecular intraperitoneal dose, traveled distance vs control over 30 min (first 5 min discarded); for ID50 inhibiting spontaneous motor activity: dose-response curve, intraperitoneal
Procedure: b) In Vivo Determination of Predictive Sedative-Hypnotic Action
The in vivo effects of these compounds were assessed by a predictive sedation-hypnosis test in mice (D. J. Sanger et al., Eur. J. Pharmacol., 313, 35-42, 1996; and G. Griebel et al., Psychopharmacology, 146, 205-213, 1999).
Groups of 5-8 male CD1 mice, weighing 22-26 g at the time of test, were used. The test compounds were administered in single equimolecular intraperitoneal doses, suspended in 0.25% agar with one drop of Tween in a volume of 10 mL/kg. Control animals received the vehicle alone. Using a Smart System (Panlab, S. L., Spain) the traveled distance in cm was recorded for each mouse at 5 min intervals during a period of 30 minutes after dosing. The inhibition percentage traveled distance of treated animals versus control animals (the first 5 min were discarded) was calculated.

[3] = test system: α2-subunit of the GABAA receptor; experiment: Ligand-binding assay, radiolabeled flumazenil competition, spinal cord membranes; details: rat spinal cord membranes, 1 nM radiolabeled flumazenil; for % Inhib 10^−5M (affinity for the α2-subunit of the GABAA receptor): 10^−5 M test compound; for % Inhib 10^−7M (affinity for the α2-subunit of the GABAA receptor): 10^−7 M test compound
Procedure: as §1, §2, §3, §4, §5

Row | Compound | inhibition at 10 µM [1] | inhibition at 0.1 µM [1] | % Motor activity inhibition [2] | % Inhib 10^−5M (affinity for the α2-subunit of the GABAA receptor) [3] | % Inhib 10^−7M (affinity for the α2-subunit of the GABAA receptor) [3] | ID50 inhibiting spontaneous motor activity ([2]; mice) | fold greater potency in inhibiting spontaneous motor activity compared to zolpidem ([2]; mice, from ID50 values)
1 | CC(C)=NNC(=O)Cc1c(-c2ccc(C)cc2)nc2ccc(C)cn12 [Example 9, (6-Methyl-2-p-tolyl-imidazo[1,2-a]pyridin-3-yl)-acetic acid isopropylidene-hydrazide] | 98.5% | 24.2% | 92.03% | 86.6% | 21.9% | – | –
2 | C/C=N/NC(=O)Cc1c(-c2ccc(C)cc2)nc2ccc(C)cn12 [Example 8, (6-Methyl-2-p-tolyl-imidazo[1,2-a]pyridin-3-yl)-acetic Acid Ethylidene-hydrazide] | 97.6% | 25.2% | 90.16% | 88.6% | 11.2% | – | –
3 | Cc1ccc(-c2nc3ccc(C)cn3c2CC(=O)N/N=C/c2ccc(Cl)cc2)cc1 [Example 7, (6-Methyl-2-p-tolyl-imidazo[1,2-a]pyridin-3-yl)-acetic Acid (4-chlorobenzylidene)-hydrazide] | 46.1% | 0.9% | 25.05% | – | – | – | –
4 | Cc1ccc(-c2nc3ccc(C)cn3c2CC(=O)N(C)N)cc1 [Example 6, (6-Methyl-2-p-tolyl-imidazo[1,2-a]pyridin-3-yl)-acetic Acid N-methyl-hydrazide] | 99% | 59.1% | 93.42% | 71.6% | 2.0% | – | –
5 | Cc1ccc(-c2nc3ccc(C)cn3c2CC(=O)NN)cc1 [Example 3, (6-Methyl-2-p-tolyl-imidazo[1,2-a]pyridin-3-yl)-acetic Acid Hydrazide] | 98.7% | 55.9% | 92.03% | – | – | 1.9 µmol/kg | 2 fold
6 | Cc1ccc(-c2nc3ccc(C)cn3c2CC(=O)N(C)C)cc1 [Zolpidem, N,N,6-trimethyl-2-p-tolylimidazo[1,2-a]pyridine-3-acetamide, reference compound] | 73.6% | – | 91.70% | 74.1% | 19.9% | 4.4 µmol/kg | –
